In data set [1] the target is T1, purified ovine COX-1 (Ovis aries, UniProt P05979).
T1 construct: purchased Cayman Chemical 700100
T1 sequence (P05979 25-600): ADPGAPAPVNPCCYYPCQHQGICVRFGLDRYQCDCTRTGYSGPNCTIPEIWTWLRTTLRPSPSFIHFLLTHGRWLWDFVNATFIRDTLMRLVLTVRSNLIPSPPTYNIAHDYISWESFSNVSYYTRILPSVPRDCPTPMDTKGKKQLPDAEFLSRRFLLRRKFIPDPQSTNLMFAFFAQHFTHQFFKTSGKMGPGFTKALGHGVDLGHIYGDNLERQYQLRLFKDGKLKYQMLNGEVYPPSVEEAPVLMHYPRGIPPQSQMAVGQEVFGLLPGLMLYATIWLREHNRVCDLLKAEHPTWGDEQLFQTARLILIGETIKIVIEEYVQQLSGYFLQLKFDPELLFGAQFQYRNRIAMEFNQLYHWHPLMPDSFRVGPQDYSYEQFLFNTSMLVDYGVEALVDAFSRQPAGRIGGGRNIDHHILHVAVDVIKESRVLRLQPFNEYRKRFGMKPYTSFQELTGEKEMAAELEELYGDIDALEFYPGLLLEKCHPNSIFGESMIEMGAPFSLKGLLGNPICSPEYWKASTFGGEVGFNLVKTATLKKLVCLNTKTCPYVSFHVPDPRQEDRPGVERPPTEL
On the set-up: method as in PMID 26081289. Particulars: previously reported ref 49; cited from earlier work.

Data set [2] can be described thus: Lipophilicity logD7.4 by HPLC method. In kind it is physicochemical. The note with it: HPLC retention on ODP-50 4B column (Shodex Asahipak), phosphate buffer pH 7.4. On the procedure: The lipophilicity of all synthesized compounds was determined as logD7.4, HPLC value by an HPLC method originally described by Donovan and Pescatore.
The logD7.4HPLC value was determined as previously reported by us utilizing an HPLC method originally described by Donovan and Pescatore.

Data set [3] addresses T2, recombinant human COX-2 (Homo sapiens, UniProt P35354).
T2 construct: purchased Cayman Chemical 700100
T2 sequence (P35354 18-604): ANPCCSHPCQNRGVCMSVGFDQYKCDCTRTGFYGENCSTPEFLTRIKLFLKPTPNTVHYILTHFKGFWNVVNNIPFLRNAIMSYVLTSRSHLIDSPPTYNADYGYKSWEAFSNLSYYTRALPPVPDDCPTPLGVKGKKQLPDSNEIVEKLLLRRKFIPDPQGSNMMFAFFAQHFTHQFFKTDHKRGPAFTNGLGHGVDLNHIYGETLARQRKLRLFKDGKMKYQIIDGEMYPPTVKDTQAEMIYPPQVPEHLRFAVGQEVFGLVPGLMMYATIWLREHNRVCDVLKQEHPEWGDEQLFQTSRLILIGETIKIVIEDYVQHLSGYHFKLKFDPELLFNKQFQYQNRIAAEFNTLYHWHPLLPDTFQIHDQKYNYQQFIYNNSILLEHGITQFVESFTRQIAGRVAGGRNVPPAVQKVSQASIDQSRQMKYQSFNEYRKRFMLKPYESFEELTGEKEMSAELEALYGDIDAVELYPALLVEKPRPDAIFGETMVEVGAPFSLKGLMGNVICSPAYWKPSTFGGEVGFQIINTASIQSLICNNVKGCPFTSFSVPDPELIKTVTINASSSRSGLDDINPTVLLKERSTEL
Also on record: method as in PMID 26081289. Particulars: COX-1 vs COX-2 selectivity index; COX inhibition previously reported ref 49; cited from earlier work.

Data set [4] deals with T2, recombinant human COX-2. As to the kind of experiment: COX Fluorescent Inhibitor Screening Assay, COX-2. In kind it is biochemical. The note with it: for SI: COX-1 vs COX-2 selectivity index; for IC50: human COX-2, 0.1 nM to 100 µM in duplicate. How it is done:
(§1) COX inhibition (Table 1) was evaluated in vitro using purified ovine COX-1 and recombinant human COX-2 enzyme in a commercially available “COX Fluorescent Inhibitor Screening Assay KIT” (item no. 700100, Cayman Chemical, Ann Arbor, MI, USA). Celecoxib served as a reference and inhibition data concerning 4a, 4e, 5a and 5e were previously reported by us and is herein discussed for comparison.
(§2) COX inhibition activity against ovine COX-1 and human COX-2 was determined using the fluorescence-based COX assay “COX Fluorescent Inhibitor Screening Assay Kit” (catalog number 700100; Cayman Chemical, Ann Arbor, MI, USA) according to the manufacturer’s instructions. Compounds 6a–d were screened at a concentration of 100 µM, all others were assayed in a concentration range of 0.1 nM to 100 μM in duplicate.

The target of data set [5] is T1, purified ovine COX-1. Put plainly: COX Fluorescent Inhibitor Screening Assay, COX-1. In kind it is biochemical. The note with it: 0.1 nM to 100 µM in duplicate. How it is done:
as §1, §2

The nature of data set [6]: Conversion in NO-assay buffer followed by UPLC. The class given is physicochemical. The note with it: after 70 h, 37 °C, presence of cysteine. On the procedure:
The time-dependent degradation behavior of compounds 4f, 5a–f, and 6a–d as well as celecoxib was followed by UPLC analysis over a time course of 8 days (Figure 4). For that, compounds were incubated at 37 °C in the presence or absence of cysteine in the assay buffer used for the Griess assay. Samples were withdrawn at distinct time points (1, 5, 23, 47, 70, and 191 h), diluted into a mixture of acetonitrile/water, and analyzed.
The time-dependent conversion of NO-COXIBs 5a–f and 6a–d as well as reference compounds 4f and celecoxib in the presence or absence of cysteine in assay buffer was investigated by following the degradation of intact compound and identification of selected degradation products by UPLC. For that, samples were incubated at 37 °C in the assay buffer in the presence or absence of cysteine and at the indicated time point; 5 µL assay buffer of each sample was withdrawn and diluted with 45 µL MeCN/water (50/50 v/v). The samples were thoroughly vortexed and then subjected to UPLC analysis. All samples of one time point were analyzed within a total analysis time of approximately 2.5 h. Conversion was monitored at 254 nm using the following UPLC system: column Aquity UPLC® HSS C18 column (Waters Corporation, Milford, MA, USA; 100 × 2.1 mm, 1.8 µm, 130 Å), UPLC H-Class (Waters Corporation, Milford, MA, USA): quaternary gradient pump QSM, autosampler FTN, column heater CHA, and diode array detector PDAeλ, γ detector Gabi Star (Raytest Isotopenmeßgeräte GmbH, Straubenhardt, Germany), flow rate 0.4 mL/min, eluent: (A): 0.1% acetic acid in MeCN/MeOH 1/1/(B): 0.1% acetic acid in H2O; gradient: t0min 45/55–t0.5min 45/55–t5.5min 95/5–t7.0min 95/5–t7.2min 45/55–t8.5min 45/55). For the identification of degradation products, samples taken after 24 h were additionally subjected to HPLC-HRMS analysis using HPLC system 6. In brief, the NO-COXIBs were converted to the respective hydroxymethyl-substituted compounds and in the presence of cysteine additionally to the cysteine adduct, which could be identified by the respective Δm/z shifts. A detailed comparison of calculated and found m/z-signals is given in Supplementary Material Table S1, and copies of HPLC-HRMS chromatograms and selected spectra are given in Supplementary Material Figures S56–S66.

Data set [7] is described as follows: Fluorometric NO release assay (Griess assay). The class given is physicochemical. Particulars: 24 h, 37 °C, relative to initial molar amount of compound; for thiol-dependent NO release: 2.5 mM cysteine; for spontaneous NO release: absence of cysteine. On the procedure:
The nitric oxide releasing properties of the nitroester-derivatives 5a–d, 5f, and 6a–d were evaluated using a fluorometric Griess assay in the presence and absence of cysteine to determine thiol-dependent and spontaneous release of nitric oxide (Figure 3).
Nitric oxide release of compounds within 24 h at 37 °C was measured using the fluorometric nitric oxide microplate assay kit ab65327 (Abcam, Cambridge, UK). For measurement of spontaneous release, 1.8 nmol of compounds were incubated in 75 µL Dulbecco’s PBS containing 0.05% v/v residual DMSO and 2.5 mM DTPA (pH = 7.1) for 24 h at 37 °C. Thiol-dependent release was measured accordingly in presence of 2.5 mM cysteine. Two series of nitrate standards were prepared (0.2−1 nmol) in 75 µL incubation buffer, in presence or absence of cysteine, respectively. According to the manufacturer’s instructions, all nitrate content in samples and standards was enzymatically converted into nitrite through incubation with nitrate reductase for 2 h at room temperature, and the resulting nitrite content (total nitric oxide) was determined through reaction with 2,3-diaminonaphthalene followed by measurement of fluorescence intensity at λex/em = 360/450 nm using a microplate reader. Nitrite content in samples was calculated from linear regression of standards and expressed as relative nitric oxide release (%) normalized to the initial molar amount of compound. NONOate served as positive control.
Figure 3 Spontaneous and thiol-dependent NO^• release from NO-COXIBs; measured using fluorometric Griess assay (n = 2); relative release indicates the percentage of soluble nitrogen species (nitrate + nitrite) detected in the incubation buffer after 24 h compared to the initial molar amount of compounds; NO^• release of NONOate (positive control) exceeded the maximum detection limit; data presented as mean ± range.

Structures can show the parent of a compound that is named as a salt. Where two headings read alike, the source gives them in different places. A value given as a limit tells only on which side of the number the result lay.

For orientation: melting point means the temperature of the solid-liquid transition. `COc1ccc(-c2c(Cl)c(CO[N+](=O)[O-])nn2-c2ccc(S(N)(=O)=O)cc2)cc1` (as salt: nitrate) [5b, [4-Chloro-5-(4-methoxyphenyl)-1-(4-sulfamoylphenyl)-1H-pyrazol-3-yl]methyl nitrate]: the melting point was 173 to 174 °C.

In the case of `Cc1ccc(-c2c(Cl)c(CO[N+](=O)[O-])nn2-c2ccc(S(C)(=O)=O)cc2)cc1` (as salt: nitrate) [5c, {4-Chloro-1-[4-(methylsulfonyl)phenyl]-5-(p-tolyl)-1H-pyrazol-3-yl}methyl nitrate], the melting point was in the range of 113 to 115 °C.

Molecule `COc1ccc(-c2c(Cl)c(CO[N+](=O)[O-])nn2-c2ccc(S(C)(=O)=O)cc2)cc1` (as salt: nitrate) [5d, {4-Chloro-5-(4-methoxyphenyl)-1-[4-(methylsulfonyl)phenyl]-1H-pyrazol-3-yl}methyl nitrate] had a melting point of 141 to 143 °C.

Consider `CCC(=O)NS(=O)(=O)c1ccc(-n2nc(CO[N+](=O)[O-])cc2-c2ccc(C)cc2)cc1` (as salt: nitrate) [6c, {1-[4-(N-Propionylsulfamoyl)phenyl]-5-(p-tolyl)-1H-pyrazol-3-yl}methyl nitrate], for which the melting point lay in the range of 72 to 74 °C.

What is called IC50 is the concentration at which inhibition is half-maximal. Broadly, the chromatographic logD is a lipophilicity value derived from retention on a column. With `Cc1ccc(-c2c(Cl)c(CCl)nn2-c2ccc(S(N)(=O)=O)cc2)cc1` [4a, 4-[4-Chloro-3-(chloromethyl)-5-(4-toly)-1H-pyrazol-1-yl]benzenesulfonamide], the IC50 on purified ovine COX-1 [1] was greater than 100 µM. For the same molecule, the chromatographic logD in data set [2] stood at 3.61. Besides, the SI at recombinant human COX-2 [3] is reported as greater than 454.

For `COc1ccc(-c2c(Cl)c(CCl)nn2-c2ccc(S(N)(=O)=O)cc2)cc1` [4b, 4-[4-Chloro-3-(chloromethyl)-5-(4-methoxyphenyl)-1H-pyrazol-1-yl]benzenesulfonamide], the melting point lay within 238 to 240 °C. Further, on recombinant human COX-2 [4], the SI was 2.3 and the 50% inhibitory concentration (IC50) amounted to 0.127 µM. At purified ovine COX-1 [5], it took 0.297 µM to reach half-maximal inhibition (IC50). In data set [2], this molecule came in with a chromatographic logD of 3.53.

As for `Cc1ccc(-c2c(Cl)c(CCl)nn2-c2ccc(S(C)(=O)=O)cc2)cc1` [4c, 4-Chloro-3-(chloromethyl)-1-[4-(methylsulfonyl)phenyl]-5-(p-tolyl)-1H-pyrazole], the SI on recombinant human COX-2 [4] is given as greater than 138. Besides, the IC50 is 0.72 µM on recombinant human COX-2 [4] and greater than 100 µM against purified ovine COX-1 [5]. This molecule also yielded a chromatographic logD in data set [2] of 3.9.

In the case of `COc1ccc(-c2c(Cl)c(CCl)nn2-c2ccc(S(C)(=O)=O)cc2)cc1` [4d, 4-Chloro-3-(chloromethyl)-5-(4-methoxyphenyl)-1-[4-(methylsulfonyl)phenyl]-1H-pyrazole], the melting point lay within 234 to 236 °C. On recombinant human COX-2 [4], the SI is given as greater than 208 and the IC50 was found to be 0.48 µM. The molecule further showed an IC50 on purified ovine COX-1 [5] greater than 100 µM. The molecule also had a chromatographic logD in data set [2] of 3.84.

Molecule `COc1ccc(-c2cc(CCl)nn2-c2ccc(S(N)(=O)=O)cc2)cc1` [4f, 4-[3-(Chloromethyl)-5-(4-methoxyphenyl)-1H-pyrazol-1-yl]benzenesulfonamide] came in with a melting point of 169 to 172 °C. Besides, the intact compound entry in data set [6] is given as “quantitatively consumed”. Further, in data set [7], the “thiol-dependent NO release” value is given as “not detectable” and the “spontaneous NO release” value was “not detectable”. Also, at recombinant human COX-2 [4], the SI is greater than 270 and the IC50 amounted to 0.37 µM. The IC50 at purified ovine COX-1 [5] was greater than 100 µM. The chromatographic logD in data set [2] amounted to 3.06.

In the case of `COc1ccc(-c2c(Cl)c(CO[N+](=O)[O-])nn2-c2ccc(S(N)(=O)=O)cc2)cc1` [5b, [4-Chloro-5-(4-methoxyphenyl)-1-(4-sulfamoylphenyl)-1H-pyrazol-3-yl]methyl nitrate], in data set [7], the “thiol-dependent NO release” value is recorded as 20% and the “spontaneous NO release” value is listed as “no detectable”. In addition, on recombinant human COX-2 [4], the SI is 5.9 and the IC50 came out at 0.434 µM. Moreover, on purified ovine COX-1 [5], the IC50 worked out at 2.57 µM and the “IC50 (COX-1)” value was “considerable COX-1 inhibition potency”. For the same molecule, in data set [2], the chromatographic logD was determined as 3.67.

The values are drawn from article PMC9573605, “Exploring Nitric Oxide (NO)-Releasing Celecoxib Derivatives as Modulators of Radioresponse in Pheochromocytoma Cells” (Molecules, 2022).
